Reference: patent US8524861B2, “Treatment of bacterial infections” (priority 2004, dated 2013)
Entries after “also recorded” stand apart in the source; their conditions may differ. Where no end group is shown, it is not given here.

Legend:
[1] = test system: Staphylococcus aureus (ATCC strain 6538P); type: cell-based; details: ATCC strain 6538P
Description: (§1) Bacterial Stocks—ATCC derived stock bacteria were obtained from Oxoid Limited. Pseudomonas aeruginosa (ATCC strain 9027) or Staphylococcus aureus (ATCC strain 6538P) were obtained in ‘Cultiloop’ format. Stocks were prepared by inoculating 20 ml of LB broth with a single Cultiloop, and incubating overnight at 37° C. Cells present after overnight incubation were harvested by removing larger aggregates by centrifugation (3000 g, 10 minutes), and withdrawing 16 ml of the supernatant, which was likely to contain mainly planktonic bacteria. To this, 4 ml of sterile glycerol was added (the latter having been sterilised by autoclaving). The resultant suspension was divided between 15× 1 ml cryovials before freezing at −85° C.
(§2) Preliminary experiments were carried out to estimate the amount to dilute bacterial stocks which when on addition of 25 μl of diluted stock to 100 μl of fresh LB broth would result in bacteria in log phase growth after overnight incubation at 37° C.
(§3) The peptides were examined for antibacterial efficacy against Staphylococcus aureus. To test the efficacy of peptides, dilutions of test peptides or PBS (for use as a control) were prepared in LB broth, and 100 μl aliquots of these placed in 96-well plates. A vial of planktonic bacterial stock was thawed in a 37° C. incubator and diluted to the level previously determined which would produce log phase growth after overnight incubation (see above). 25 μl of this bacterial dilution was then added to the test wells (some wells containing LB broth without peptide were left without any bacterial inoculation, these being used as a blank). After overnight growth, the concentration of bacteria in individual wells was assessed by measuring absorbance at 620 nm, in a microplate spectrophotometer. The average absorbance of wells for specific concentrations of peptides was calculated, and from this the percentage inhibition (relative to untreated wells) was also calculated and plotted against concentration (along with an estimate of error on that % inhibition).
(§4) The inventor constructed an expanded library of peptides derived from either apolipoprotein B or apolipoprotein E in order to further evaluate polypeptides in accordance with the invention. Further experiments were then conducted to investigate the antibacterial activity of this peptide library against the bacteria P. aeroginosa, S. aureus and S. pneumoniae. The methods used to determine the IC50 values for each peptide were as described in the Example 1.

[2] = test system: Pseudomonas aeruginosa (ATCC strain 9027); type: cell-based; details: for IC50: ATCC strain 9027
Description: as §1, §2, §3
Peptides in accordance with the invention were also examined for antibacterial efficacy against Pseudomonas aeruginosa using the same technique as described above to calculate the IC50 values.
Points were obtained by dividing the average for six treated wells by the average for six untreated wells, and bars show an estimate of the error for these calculated values.
as §4

[3] = test system: Saccharomyces cerevisiae yeast cells (strain GenT01); assay: Gentronix GreenScreen GC yeast genotoxicity assay; type: cell-based; details: concentrations up to and including 100 μM, FIGS. 6A-6C
Description: A liquid handling robot is used to produce a serial dilution series of each test compound in a 96-well, black microplate with an optically clear base. […] In addition, a series of genotoxic and cytotoxic standards and non-toxic controls are run to provide internal quality control. The plates are covered with a breathable membrane and incubated overnight, without shaking, at 25° C.
After incubation, the microplates are uncovered and data collected using a Tecan Ultra 384 microplate reader. This instrument provides measurements of light absorbance and fluorescence in microplates; a standard fluorescein filter set (excitation 485/25 and emission 535/25) is used. Absorbance is read at 620 nm and is proportional to cell proliferation (which is lowered by toxic analytes). Fluorescence is proportional to the activity of the DNA repair system (increased by genotoxic analytes). The yeast cultures used are a genetically modified strain that express a green fluorescent protein whenever the cells carry out DNA damage repair. Fluorescence is normalised to the absorbance signal to correct for variation in cell yield caused by any cytolytic activity of the test compounds against the yeast cells. This produces a “fluorescence per cell” measurement termed “brightness”. In addition to the Gentronix Assay yeast strain (GenT01), a control Saccharomyces cerevisiae strain (GenC01) is also used, which is identical except for its ability to produce green fluorescent protein is disabled. This strain is used to provide a control to allow correction for substances which may be either autofluorescent themselves or which induce an autofluorescence in the yeast cells. The data collected is simply transferred into a Excel template where result evaluation sheets are automatically produced. The sheets contain the processed results in both a graphical and tabulated format, with automatic assessment of the result, i.e. positive or negative, and calculation of the lowest effective concentration (LEC), for both genotoxicity and cytotoxicity. […]

[4] = test system: Staphylococcus aureus, Pseudomonas aeruginosa, and Streptococcus pneumoniae; assay: Antibacterial activity, overall statements over the test bacteria; type: cell-based
Text: The inventors conducted exhaustive experiments to assess the antibacterial activity of peptides from apolipoproteins and derivatives thereof. Peptides and derivatives from ApoE and ApoB were a particular focus. […] Example 1 illustrates the efficacy of the polypeptides according to the invention compared to apoE141-149 and apoB3359-3367 (i.e. non-tandem repeats) and other peptides derived from apolipoproteins.
The activity of polypeptides in accordance with the invention can be seen in Tables 5, 6, 7 and 8.
as §3, §4

[5] = test system: Streptococcus pneumoniae; type: cell-based
Description: as §3, with “inhibition). […] The inventor constructed an expanded library of peptides derived from either apolipoprotein B or apolipoprotein E in order to further evaluate polypeptides in accordance with the invention. Further experiments were then conducted to investigate the antibacterial activity of this peptide library against the bacteria P. aeroginosa, S. aureus and S. pneumoniae. The methods used to determine the IC50 values for each peptide were as described in the Example 1.” for “inhibition).”

[6] = test system: bacteria; details: Peptides, 21: 327-330 (2000); cited from earlier work

Substance | IC50 [1] | IC50 [2] | Effectiveness against Pseudomonadales, in particular P. aeruginosa, in words ([2]; summary in description) | Genotoxic response in test yeast strain (GenT01) [3] | Antibacterial activity, in words, bacterium not specified [4] | IC50 [5] | Antibacterial activity reported by Azuma et al., in words [6]
Ac-WRKWRKRWWLRKLRKRLL-NH2 [GIN 34] | 7 µM | 3 µM | particularly effective | failed to produce any genotoxic response | particularly effective |  | 
Ac-WRWRKRWRKWRWRKRWRK-NH2 [MU_27] |  |  |  | failed to produce any genotoxic response |  | 46 µM | 
HRWRKRWRKHRWRKRWRK-NH2 (C-terminus assumed) [MU_36] | 40 µM | > 53 µM |  |  |  | > 53 µM | 
HRWRKRWRKWRWRKRWRK-NH2 (C-terminus assumed) [MU_31] | 17 µM | 12 µM |  |  |  | 42 µM | 
KRWRKRWRKWRWRKRWRK-NH2 (C-terminus assumed) [MU_29] | 23 µM | 7.5 µM |  |  |  | 52 µM | 
LRVRLASHLRKLRKRLLRDADDLQKRLAVY [apoE133-162, 30-mer monomeric peptide of Azuma et al] |  |  |  |  |  |  | comparable with that of the antibiotic gentamicin
LRWRKRWRKLRWRKRWRK-NH2 (C-terminus assumed) [MU_35] | 31 µM | 23 µM |  |  |  | 53 µM | 
LRWRKRWRKWRWRKRWRK-NH2 (C-terminus assumed) [MU_30] | 15 µM | 15 µM |  |  | particularly effective | 38 µM | 
RRKRRKRRRRRKRRKRRR-NH2 (C-terminus assumed) [MU_16] |  | > 53 µM |  |  |  | > 53 µM | 
RRWRKRWRKRRWRKRWRK-NH2 (C-terminus assumed) [MU_33] | 38 µM | > 53 µM |  |  |  | 53 µM | 
RRWRKRWRKWRWRKRWRK-NH2 (C-terminus assumed) [MU_28] | 15 µM | 11.5 µM |  |  | particularly effective | 46 µM | 
RWRKRWRKWRWRKRWRK-NH2 (C-terminus assumed) [MU_32] | 15 µM | 12 µM |  |  | particularly effective | 46 µM | 
apoE134-155: Azuma's shorter apoE peptide, stated as 18 amino acids in length (RVRLASHLRKLRKRLLRDADDL; UniProt P02649 152-173, looked up, fragment) |  |  |  |  |  |  | no activity at all
apoE134-159: Azuma's shorter apoE peptides, label printed for both a 22 and a 26 amino acid peptide (RVRLASHLRKLRKRLLRDADDLQKRL; UniProt P02649 152-177, looked up, fragment) |  |  |  |  |  |  | very low antibacterial activity; also recorded: greatly reduced antibacterial activity
